Measurements from US10946383B2, “Oligonucleotide encoded chemical libraries” (Plexium, Inc., priority 2017, dated 2021).

Target: Cathepsin-D protease (Homo sapiens, UniProt P07339)
Test: Cathepsin-D protease inhibition assay in picowells with bead-released compound and Peptide Q-Fluor substrate
Format: biochemical
Details: compound released from 10 μm TentaGel beads by UV (365 nm, 77 J/cm^2) to approximately 13 μM; 30 min, 37° C.

Cathepsin-D protease, sequence (P07339 65-412): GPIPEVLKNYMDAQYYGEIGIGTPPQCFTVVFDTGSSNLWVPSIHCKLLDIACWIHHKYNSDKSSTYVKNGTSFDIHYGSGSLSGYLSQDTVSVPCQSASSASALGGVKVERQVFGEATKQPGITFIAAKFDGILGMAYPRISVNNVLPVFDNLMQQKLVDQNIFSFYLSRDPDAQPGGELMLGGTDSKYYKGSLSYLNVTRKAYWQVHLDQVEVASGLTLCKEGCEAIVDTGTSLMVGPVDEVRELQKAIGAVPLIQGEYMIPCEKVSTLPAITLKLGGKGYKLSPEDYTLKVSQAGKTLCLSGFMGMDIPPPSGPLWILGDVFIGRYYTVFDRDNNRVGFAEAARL

Question: `CC(C)[C@H](NC(=O)OCC1c2ccccc2-c2ccccc21)C(=O)O` [negative control beads, Fmoc-Valine] was tested. Which “Cathepsin-D inhibition (fluorescence of cleaved Peptide Q-Fluor substrate)” value did it give?
Answer: The value was “no Cathepsin-D inhibition”.
